# Data: patent publication US20090047221A1 (NIPRI LIMITED, priority 2004, published 2009)
# Test system: cancer cell line MDA-MB-468
# Test: Combination index with known cancer drugs against proliferation (Calcusyn software)
# Format: cell-based
# Source text: A combination index of less than 0.1 indicates very strong synergy; a combination index of 0.1 to 0.3 indicates strong synergism; a combination index of 0.3 to 0.7 indicates synergism; a combination index of 0.7 to 0.85 indicates moderate synergism; a combination index of 0.85 to 0.9 indicates slight synergism and a combination index of 0.9 to 1.1 indicates only very slight synergism, said combination being close to merely additive.
# The combination index may be calculated using calcusyn software.
# Evidence of synergy was determined by calculation of the combination index using Calcusyn software.
# The MTT assay was used initially to determine the anti-proliferative activity of the test compounds. In the MTT assay a yellow thiazolyl blue tetrazolium bromide salt (MTT) is reduced, in metabolically active cells, to form insoluble purple formazan crystals which are solubilised by the addition of dimethyl sulphoxide (DMSO). Absorbance readings can then be determined spectrophotometrically and a relationship established between control untreated cells and drug treated cells enabling the quantification of anti-proliferative changes as a result of drug treatment (Mosmann, 1983).
# Wells containing medium only were used as blanks. Following the attachment period, cells were treated with appropriate drug concentrations (20 μl added per well). 40 mg/ml stock drug solutions, in DMSO, were stored at −20° C. and on the day of drug treatment working solutions of 4 mg/ml were prepared in medium which was further diluted to achieve final drug dilution volumes of 20 μl. Initial screening was determined over a concentration range of 1-200 μg/ml. For potent compounds the assay was repeated over a narrower concentration range to determine accurate IC50 values. Cells were exposed to drug for 96 h continual exposure (37° C., 5% CO2). Following the 96 h incubation, 50 μl MTT solution (1 g MTT/500 ml PBS) was added per well and the plates were further incubated for 4 h (37° C., 5% CO2). After incubation the MTT and medium was removed from the wells and 100 μl DMSO added per well. Plates were agitated on an orbital mixer platform (Stuart Scientific) for 10 minutes. Absorbance was measured at 570 nm on a Biotrak II (Amersham Bioscience) plate reader. IC50 values were calculated comparing control and drug treated cells.
structure (smiles),measurement,setting,value
"CCCCCCNC(=O)c1ccc2c(c1O)C(=O)OC(C)C2 (racemic) [ALM-49, Hexyl Amide]",Combination Index,"Cisplatin 1 × 10^−2 mol/L, ALM compound 0.1 μg/ml",0.003
same,Combination Index,"Cisplatin 1 × 10^−2 mol/L, ALM compound 0.5 μg/ml",0.002
same,Combination Index,"Cisplatin 1 × 10^−2 mol/L, ALM compound 1.0 μg/ml",0.009
same,Combination Index,"Cisplatin 1 × 10^−2 mol/L, ALM compound 5.0 μg/ml",0.051
same,Combination Index,"Cisplatin 1 × 10^−3 mol/L, ALM compound 0.1 μg/ml",No
same,Combination Index,"Cisplatin 1 × 10^−3 mol/L, ALM compound 0.5 μg/ml",No
same,Combination Index,"Cisplatin 1 × 10^−3 mol/L, ALM compound 1.0 μg/ml",No
same,Combination Index,"Cisplatin 1 × 10^−3 mol/L, ALM compound 5.0 μg/ml",No
same,Combination Index,"Cisplatin 1 × 10^−4 mol/L, ALM compound 0.1 μg/ml",No
same,Combination Index,"Cisplatin 1 × 10^−4 mol/L, ALM compound 0.5 μg/ml",No
same,Combination Index,"Cisplatin 1 × 10^−4 mol/L, ALM compound 1.0 μg/ml",No
same,Combination Index,"Cisplatin 1 × 10^−4 mol/L, ALM compound 5.0 μg/ml",No
same,Combination Index,"Cisplatin 1 × 10^−5 mol/L, ALM compound 0.1 μg/ml",No
same,Combination Index,"Cisplatin 1 × 10^−5 mol/L, ALM compound 0.5 μg/ml",No
same,Combination Index,"Cisplatin 1 × 10^−5 mol/L, ALM compound 1.0 μg/ml",No
same,Combination Index,"Cisplatin 1 × 10^−5 mol/L, ALM compound 5.0 μg/ml",No
same,Combination Index,"Cisplatin 1 × 10^−6 mol/L, ALM compound 0.1 μg/ml",No
same,Combination Index,"Cisplatin 1 × 10^−6 mol/L, ALM compound 0.5 μg/ml",No
same,Combination Index,"Cisplatin 1 × 10^−6 mol/L, ALM compound 1.0 μg/ml",No
same,Combination Index,"Cisplatin 1 × 10^−6 mol/L, ALM compound 5.0 μg/ml",No
same,Combination Index,"Cisplatin 1 × 10^−7 mol/L, ALM compound 0.1 μg/ml",0.625
same,Combination Index,"Cisplatin 1 × 10^−7 mol/L, ALM compound 0.5 μg/ml",No
same,Combination Index,"Cisplatin 1 × 10^−7 mol/L, ALM compound 1.0 μg/ml",No
same,Combination Index,"Cisplatin 1 × 10^−7 mol/L, ALM compound 5.0 μg/ml",No
same,Combination Index,"Cisplatin 1 × 10^−8 mol/L, ALM compound 0.1 μg/ml",0.119
same,Combination Index,"Cisplatin 1 × 10^−8 mol/L, ALM compound 0.5 μg/ml",No
same,Combination Index,"Cisplatin 1 × 10^−8 mol/L, ALM compound 1.0 μg/ml",No
same,Combination Index,"Cisplatin 1 × 10^−8 mol/L, ALM compound 5.0 μg/ml",No
same,Combination Index,"Cisplatin 1 × 10^−9 mol/L, ALM compound 0.1 μg/ml",0.487
same,Combination Index,"Cisplatin 1 × 10^−9 mol/L, ALM compound 0.5 μg/ml",No
same,Combination Index,"Cisplatin 1 × 10^−9 mol/L, ALM compound 1.0 μg/ml",No
same,Combination Index,"Cisplatin 1 × 10^−9 mol/L, ALM compound 5.0 μg/ml",No
same,Combination Index,"Doxorubicin 1 × 10^−4 mol/L, ALM compound 0.1 μg/ml",No
same,Combination Index,"Doxorubicin 1 × 10^−4 mol/L, ALM compound 0.5 μg/ml",No
same,Combination Index,"Doxorubicin 1 × 10^−4 mol/L, ALM compound 1.0 μg/ml",No
same,Combination Index,"Doxorubicin 1 × 10^−4 mol/L, ALM compound 5.0 μg/ml",0.968
same,Combination Index,"Doxorubicin 1 × 10^−5 mol/L, ALM compound 0.1 μg/ml",0.410
same,Combination Index,"Doxorubicin 1 × 10^−5 mol/L, ALM compound 0.5 μg/ml",0.436
same,Combination Index,"Doxorubicin 1 × 10^−5 mol/L, ALM compound 1.0 μg/ml",0.438
same,Combination Index,"Doxorubicin 1 × 10^−5 mol/L, ALM compound 5.0 μg/ml",0.720
same,Combination Index,"Etoposide 1 × 10^−4 mol/L, ALM compound 0.1 μg/ml",0.385
same,Combination Index,"Etoposide 1 × 10^−4 mol/L, ALM compound 0.5 μg/ml",0.234
same,Combination Index,"Etoposide 1 × 10^−4 mol/L, ALM compound 1.0 μg/ml",0.210
same,Combination Index,"Etoposide 1 × 10^−4 mol/L, ALM compound 5.0 μg/ml",0.175
same,Combination Index,"Etoposide 1 × 10^−5 mol/L, ALM compound 0.1 μg/ml",1.184
same,Combination Index,"Etoposide 1 × 10^−5 mol/L, ALM compound 0.5 μg/ml",0.659
same,Combination Index,"Etoposide 1 × 10^−5 mol/L, ALM compound 1.0 μg/ml",1.065
same,Combination Index,"Etoposide 1 × 10^−5 mol/L, ALM compound 5.0 μg/ml",0.941
same,Combination Index,"Etoposide 1 × 10^−6 mol/L, ALM compound 0.1 μg/ml",No
same,Combination Index,"Etoposide 1 × 10^−6 mol/L, ALM compound 0.5 μg/ml",0.806
same,Combination Index,"Etoposide 1 × 10^−6 mol/L, ALM compound 1.0 μg/ml",No
same,Combination Index,"Etoposide 1 × 10^−6 mol/L, ALM compound 5.0 μg/ml",No
same,Combination Index,"Etoposide 1 × 10^−7 mol/L, ALM compound 0.1 μg/ml",1.167
same,Combination Index,"Etoposide 1 × 10^−7 mol/L, ALM compound 0.5 μg/ml",0.78
same,Combination Index,"Etoposide 1 × 10^−7 mol/L, ALM compound 1.0 μg/ml",No
same,Combination Index,"Etoposide 1 × 10^−7 mol/L, ALM compound 5.0 μg/ml",No
same,Combination Index,"Etoposide 1 × 10^−8 mol/L, ALM compound 0.1 μg/ml",No
same,Combination Index,"Etoposide 1 × 10^−8 mol/L, ALM compound 0.5 μg/ml",No
same,Combination Index,"Etoposide 1 × 10^−8 mol/L, ALM compound 1.0 μg/ml",No
same,Combination Index,"Etoposide 1 × 10^−8 mol/L, ALM compound 5.0 μg/ml",No
same,Combination Index,"Etoposide 1 × 10^−9 mol/L, ALM compound 0.1 μg/ml",0.836
same,Combination Index,"Etoposide 1 × 10^−9 mol/L, ALM compound 0.5 μg/ml",No
same,Combination Index,"Etoposide 1 × 10^−9 mol/L, ALM compound 1.0 μg/ml",No
same,Combination Index,"Etoposide 1 × 10^−9 mol/L, ALM compound 5.0 μg/ml",No
same,Combination Index,"Etoposide 1 × 10^−10 mol/L, ALM compound 0.1 μg/ml",0.344
same,Combination Index,"Etoposide 1 × 10^−10 mol/L, ALM compound 0.5 μg/ml",No
same,Combination Index,"Etoposide 1 × 10^−10 mol/L, ALM compound 1.0 μg/ml",No
same,Combination Index,"Etoposide 1 × 10^−10 mol/L, ALM compound 5.0 μg/ml",No
same,Combination Index,"Irinotecan 1 × 10^−3 mol/L, ALM compound 0.1 μg/ml",No
same,Combination Index,"Irinotecan 1 × 10^−3 mol/L, ALM compound 0.5 μg/ml",0.606
same,Combination Index,"Irinotecan 1 × 10^−3 mol/L, ALM compound 1.0 μg/ml",0.715
same,Combination Index,"Irinotecan 1 × 10^−3 mol/L, ALM compound 5.0 μg/ml",0.557
same,Combination Index,"Irinotecan 1 × 10^−4 mol/L, ALM compound 0.1 μg/ml",0.029
same,Combination Index,"Irinotecan 1 × 10^−4 mol/L, ALM compound 0.5 μg/ml",0.019
same,Combination Index,"Irinotecan 1 × 10^−4 mol/L, ALM compound 1.0 μg/ml",0042
same,Combination Index,"Irinotecan 1 × 10^−4 mol/L, ALM compound 5.0 μg/ml",0.042
same,Combination Index,"Irinotecan 1 × 10^−5 mol/L, ALM compound 0.1 μg/ml",No
same,Combination Index,"Irinotecan 1 × 10^−5 mol/L, ALM compound 0.5 μg/ml",No
same,Combination Index,"Irinotecan 1 × 10^−5 mol/L, ALM compound 1.0 μg/ml",No
same,Combination Index,"Irinotecan 1 × 10^−5 mol/L, ALM compound 5.0 μg/ml",No
same,Combination Index,"Irinotecan 1 × 10^−6 mol/L, ALM compound 0.1 μg/ml",No
same,Combination Index,"Irinotecan 1 × 10^−6 mol/L, ALM compound 0.5 μg/ml",No
same,Combination Index,"Irinotecan 1 × 10^−6 mol/L, ALM compound 1.0 μg/ml",No
same,Combination Index,"Irinotecan 1 × 10^−6 mol/L, ALM compound 5.0 μg/ml",No
same,Combination Index,"Irinotecan 1 × 10^−7 mol/L, ALM compound 0.1 μg/ml",No
same,Combination Index,"Irinotecan 1 × 10^−7 mol/L, ALM compound 0.5 μg/ml",No
same,Combination Index,"Irinotecan 1 × 10^−7 mol/L, ALM compound 1.0 μg/ml",No
same,Combination Index,"Irinotecan 1 × 10^−7 mol/L, ALM compound 5.0 μg/ml",No
same,Combination Index,"Irinotecan 1 × 10^−8 mol/L, ALM compound 0.1 μg/ml",No
same,Combination Index,"Irinotecan 1 × 10^−8 mol/L, ALM compound 0.5 μg/ml",No
same,Combination Index,"Irinotecan 1 × 10^−8 mol/L, ALM compound 1.0 μg/ml",No
same,Combination Index,"Irinotecan 1 × 10^−8 mol/L, ALM compound 5.0 μg/ml",No
same,Combination Index,"Irinotecan 1 × 10^−9 mol/L, ALM compound 0.1 μg/ml",No
same,Combination Index,"Irinotecan 1 × 10^−9 mol/L, ALM compound 0.5 μg/ml",No
same,Combination Index,"Irinotecan 1 × 10^−9 mol/L, ALM compound 1.0 μg/ml",No
same,Combination Index,"Irinotecan 1 × 10^−9 mol/L, ALM compound 5.0 μg/ml",No
same,Combination Index,"Irinotecan 1 × 10^−10 mol/L, ALM compound 0.1 μg/ml",No
same,Combination Index,"Irinotecan 1 × 10^−10 mol/L, ALM compound 0.5 μg/ml",No
same,Combination Index,"Irinotecan 1 × 10^−10 mol/L, ALM compound 1.0 μg/ml",No
same,Combination Index,"Irinotecan 1 × 10^−10 mol/L, ALM compound 5.0 μg/ml",No
